Data: patent publication US7709471B2, “Compounds” (AstraZeneca AB, priority 2006, dated 2010)

Tests used:
recombinant Plk1 = recombinant Plk1 (Homo sapiens, UniProt P53350); experiment: In Vitro Plk1 Enzyme Assay (SPA, GST-Cdc25C phosphorylation); format: biochemical; settings: ATP 64 nM, 90 minutes, read-out: IC50 (Plk1 enzyme inhibition)
[1] = system: human colon tumour cell line HT29; experiment: Cellular Assay (phosphohistone H3 Ser10 mitotic marker, HT29); format: cell-based; settings: HT-29, 24 h, HT29 cells, read-out: IC50 (cellular assay, phosphohistone H3)

recombinant Plk1, sequence (P53350 whole entry): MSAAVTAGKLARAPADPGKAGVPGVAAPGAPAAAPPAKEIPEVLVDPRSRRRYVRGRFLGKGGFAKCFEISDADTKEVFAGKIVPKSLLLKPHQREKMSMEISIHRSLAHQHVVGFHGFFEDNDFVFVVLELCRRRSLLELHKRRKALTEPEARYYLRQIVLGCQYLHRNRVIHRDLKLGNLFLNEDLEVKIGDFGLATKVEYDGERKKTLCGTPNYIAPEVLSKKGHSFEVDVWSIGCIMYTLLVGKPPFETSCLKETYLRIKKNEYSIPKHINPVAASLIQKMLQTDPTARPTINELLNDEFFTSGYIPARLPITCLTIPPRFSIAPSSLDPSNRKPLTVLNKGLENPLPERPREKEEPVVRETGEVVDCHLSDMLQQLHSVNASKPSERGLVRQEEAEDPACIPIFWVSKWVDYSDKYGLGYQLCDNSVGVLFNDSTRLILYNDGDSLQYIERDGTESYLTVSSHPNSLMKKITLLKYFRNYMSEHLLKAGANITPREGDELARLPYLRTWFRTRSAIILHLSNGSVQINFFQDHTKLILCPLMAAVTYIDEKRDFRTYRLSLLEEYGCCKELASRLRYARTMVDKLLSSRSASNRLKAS

Row | Compound | IC50 (recombinant Plk1) | IC50 [1]
1 | CCN1CCC(NC(=O)c2ccc(Nc3ncc4c(n3)N(C3CCCC3)CCC(=O)N4C)c(OC)c2)CC1 [Example 61, 4-[(6-cyclopentyl-2-methyl-3-oxo-2,6,8,10-tetrazabicyclo[5.4.0]undeca-8,10,12-trien-9-yl)amino]-N-(1-ethyl-4-piperidyl)-3-methoxy-benzamide] | < 300 nM | < 300 nM
2 | COc1cc(C(=O)N[C@@H]2CCN(C)C2)ccc1Nc1ncc2c(n1)N(C1CCCC1)CCC(=O)N2C [Example 62, 4-[(6-cyclopentyl-2-methyl-3-oxo-2,6,8,10-tetrazabicyclo[5.4.0]undeca-8,10,12-trien-9-yl)amino]-3-methoxy-N-[(3R)-1-methylpyrrolidin-3-yl]benzamide] | < 300 nM | < 300 nM
3 | COc1cc(C(=O)N[C@H]2[C@@H]3CN(C)C[C@@H]32)ccc1Nc1ncc2c(n1)N(C1CCCC1)CCC(=O)N2C [Example 64, 4-[(6-cyclopentyl-2-methyl-3-oxo-2,6,8,10-tetrazabicyclo[5.4.0]undeca-8,10,12-trien-9-yl)amino]-3-methoxy-N-[(1S,5R)-3-methyl-3-azabicyclo[3.1.0]hex-6-yl]benzamide] | < 300 nM | < 300 nM
4 | COc1cc(C(=O)Nc2ccncc2)ccc1Nc1ncc2c(n1)N(C1CCCC1)CCC(=O)N2C [Example 67, 4-[(6-cyclopentyl-2-methyl-3-oxo-2,6,8,10-tetrazabicyclo[5.4.0]undeca-8,10,12-trien-9-yl)amino]-3-methoxy-N-pyridin-4-yl-benzamide] | < 1000 nM | < 300 nM
5 | COc1cc(C(=O)NCCCN2CCCCC2)ccc1Nc1ncc2c(n1)N(C1CCCC1)CCC(=O)N2C [Example 69, 4-[(6-cyclopentyl-2-methyl-3-oxo-2,6,8,10-tetrazabicyclo[5.4.0]undeca-8,10,12-trien-9-yl)amino]-3-methoxy-N-[3-(1-piperidyl)propyl]benzamide] | < 300 nM | < 300 nM
6 | COc1cc(C(=O)NCCCN2CCCCCC2)ccc1Nc1ncc2c(n1)N(C1CCCC1)CCC(=O)N2C [Example 70, N-[3-(azepan-1-yl)propyl]-4-[(6-cyclopentyl-2-methyl-3-oxo-2,6,8,10-tetrazabicyclo[5.4.0]undeca-8,10,12-trien-9-yl)amino]-3-methoxy-benzamide] | < 1000 nM | < 300 nM
7 | COc1cc(C(=O)NC2CC3CCC(C2)N3C)ccc1Nc1ncc2c(n1)N(C1CCCC1)CCC(=O)N2C [Example 71, 4-[(6-cyclopentyl-2-methyl-3-oxo-2,6,8,10-tetrazabicyclo[5.4.0]undeca-8,10,12-trien-9-yl)amino]-3-methoxy-N-[(1S,5R)-8-methyl-8-azabicyclo[3.2.1]oct-3-yl]benzamide] | < 300 nM | < 300 nM
8 | COc1cc(C(=O)NC2CC(C)(C)N(C)C(C)(C)C2)ccc1Nc1ncc2c(n1)N(C1CCCC1)CCC(=O)N2C [Example 72, 4-[(6-cyclopentyl-2-methyl-3-oxo-2,6,8,10-tetrazabicyclo[5.4.0]undeca-8,10,12-trien-9-yl)amino]-3-methoxy-N-(1,2,2,6,6-pentamethyl-4-piperidyl)benzamide] | < 300 nM | < 300 nM
9 | COc1cc(C(=O)NCC(C)(C)N2CCCCC2)ccc1Nc1ncc2c(n1)N(C1CCCC1)CCC(=O)N2C [Example 75, 4-[(6-cyclopentyl-2-methyl-3-oxo-2,6,8,10-tetrazabicyclo[5.4.0]undeca-8,10,12-trien-9-yl)amino]-3-methoxy-N-[2-methyl-2-(1-piperidyl)propyl]benzamide] | < 300 nM | < 300 nM
10 | CCN(CC)CCCNC(=O)c1ccc(Nc2ncc3c(n2)N(C2CCCC2)CCC(=O)N3C)c(OC)c1 [Example 78, 4-[(6-cyclopentyl-2-methyl-3-oxo-2,6,8,10-tetrazabicyclo[5.4.0]undeca-8,10,12-trien-9-yl)amino]-N-(3-diethylaminopropyl)-3-methoxy-benzamide] | < 300 nM | < 300 nM
11 | COc1cc(C(=O)NCc2ccncc2)ccc1Nc1ncc2c(n1)N(C1CCCC1)CCC(=O)N2C [Example 80, 4-[(6-cyclopentyl-2-methyl-3-oxo-2,6,8,10-tetrazabicyclo[5.4.0]undeca-8,10,12-trien-9-yl)amino]-3-methoxy-N-(pyridin-4-ylmethyl)benzamide] | < 1000 nM | < 300 nM
12 | COc1cc(C(=O)NC(C)(C)CN2CCCC2)ccc1Nc1ncc2c(n1)N(C1CCCC1)CCC(=O)N2C [Example 81, 4-[(6-cyclopentyl-2-methyl-3-oxo-2,6,8,10-tetrazabicyclo[5.4.0]undeca-8,10,12-trien-9-yl)amino]-3-methoxy-N-(2-methyl-1-pyrrolidin-1-yl-propan-2-yl)benzamide] | < 1000 nM | < 300 nM
13 | COc1cc(C(=O)NCC2(CN3CCCC3)CC2)ccc1Nc1ncc2c(n1)N(C1CCCC1)CCC(=O)N2C [Example 83, 4-[(6-cyclopentyl-2-methyl-3-oxo-2,6,8,10-tetrazabicyclo[5.4.0]undeca-8,10,12-trien-9-yl)amino]-3-methoxy-N-[[1-(pyrrolidin-1-ylmethyl)cyclopropyl]methyl]benzamide] | < 300 nM | < 300 nM

Results, then the compound that gave them:

Row | IC50 (recombinant Plk1) | IC50 [1] | Compound
14 | < 300 nM | < 300 nM | COc1cc(C(=O)N[C@H]2CCN(C)C2)ccc1Nc1ncc2c(n1)N(C1CCCC1)CCC(=O)N2C [Example 63, 4-[(6-cyclopentyl-2-methyl-3-oxo-2,6,8,10-tetrazabicyclo[5.4.0]undeca-8,10,12-trien-9-yl)amino]-3-methoxy-N-[(3S)-1-methylpyrrolidin-3-yl]benzamide]
15 | < 300 nM | < 300 nM | COc1cc(C(=O)NC(C)CN2CCCCC2)ccc1Nc1ncc2c(n1)N(C1CCCC1)CCC(=O)N2C (centres unmarked) [Example 73, 4-[(6-cyclopentyl-2-methyl-3-oxo-2,6,8,10-tetrazabicyclo[5.4.0]undeca-8,10,12-trien-9-yl)amino]-3-methoxy-N-[1-(1-piperidyl)propan-2-yl]benzamide]
16 | < 100000 nM | < 300 nM | COc1cc(C(=O)Nc2cccnc2)ccc1Nc1ncc2c(n1)N(C1CCCC1)CCC(=O)N2C [Example 74, 4-[(6-cyclopentyl-2-methyl-3-oxo-2,6,8,10-tetrazabicyclo[5.4.0]undeca-8,10,12-trien-9-yl)amino]-3-methoxy-N-pyridin-3-yl-benzamide]
17 | < 1000 nM | < 300 nM | COc1cc(C(=O)NCc2cccnc2)ccc1Nc1ncc2c(n1)N(C1CCCC1)CCC(=O)N2C [Example 76, 4-[(6-cyclopentyl-2-methyl-3-oxo-2,6,8,10-tetrazabicyclo[5.4.0]undeca-8,10,12-trien-9-yl)amino]-3-methoxy-N-(pyridin-3-ylmethyl)benzamide]
18 | < 100000 nM | < 1000 nM | COc1ccc(NC(=O)c2ccc(Nc3ncc4c(n3)N(C3CCCC3)CCC(=O)N4C)c(OC)c2)cc1 [Example 77, 4-[(6-cyclopentyl-2-methyl-3-oxo-2,6,8,10-tetrazabicyclo[5.4.0]undeca-8,10,12-trien-9-yl)amino]-3-methoxy-N-(4-methoxyphenyl)benzamide]
19 | < 300 nM | < 300 nM | COc1cc(C(=O)NC[C@@H]2CCCN2CC2CC2)ccc1Nc1ncc2c(n1)N(C1CCCC1)CCC(=O)N2C [Example 82, 4-[(6-cyclopentyl-2-methyl-3-oxo-2,6,8,10-tetrazabicyclo[5.4.0]undeca-8,10,12-trien-9-yl)amino]-N-[[(2S)-1-(cyclopropylmethyl)pyrrolidin-2-yl]methyl]-3-methoxy-benzamide]
